Results published in ChEMBL document CHEMBL1145423, “Synthesis and pharmacological evaluation of phenylethynyl[1,2,4]methyltriazines as analogues of 3-methyl-6-(phenylethynyl)pyridine” (J Med Chem, 2007).
Calls of active or inactive are those of the source. No cut-off for these calls is given here.

Columns and labels:
[1] = target: Metabotropic glutamate receptor 5 (Homo sapiens, UniProt P41594); experiment: Antagonist activity at human mGluR5 receptor expressed in CHOK1 cells assessed as inhibition of glutamate-mediated internal calcium mobilization; format: functional, cell-based, CHO-K1
Chain of Metabotropic glutamate receptor 5 (P41594 whole entry): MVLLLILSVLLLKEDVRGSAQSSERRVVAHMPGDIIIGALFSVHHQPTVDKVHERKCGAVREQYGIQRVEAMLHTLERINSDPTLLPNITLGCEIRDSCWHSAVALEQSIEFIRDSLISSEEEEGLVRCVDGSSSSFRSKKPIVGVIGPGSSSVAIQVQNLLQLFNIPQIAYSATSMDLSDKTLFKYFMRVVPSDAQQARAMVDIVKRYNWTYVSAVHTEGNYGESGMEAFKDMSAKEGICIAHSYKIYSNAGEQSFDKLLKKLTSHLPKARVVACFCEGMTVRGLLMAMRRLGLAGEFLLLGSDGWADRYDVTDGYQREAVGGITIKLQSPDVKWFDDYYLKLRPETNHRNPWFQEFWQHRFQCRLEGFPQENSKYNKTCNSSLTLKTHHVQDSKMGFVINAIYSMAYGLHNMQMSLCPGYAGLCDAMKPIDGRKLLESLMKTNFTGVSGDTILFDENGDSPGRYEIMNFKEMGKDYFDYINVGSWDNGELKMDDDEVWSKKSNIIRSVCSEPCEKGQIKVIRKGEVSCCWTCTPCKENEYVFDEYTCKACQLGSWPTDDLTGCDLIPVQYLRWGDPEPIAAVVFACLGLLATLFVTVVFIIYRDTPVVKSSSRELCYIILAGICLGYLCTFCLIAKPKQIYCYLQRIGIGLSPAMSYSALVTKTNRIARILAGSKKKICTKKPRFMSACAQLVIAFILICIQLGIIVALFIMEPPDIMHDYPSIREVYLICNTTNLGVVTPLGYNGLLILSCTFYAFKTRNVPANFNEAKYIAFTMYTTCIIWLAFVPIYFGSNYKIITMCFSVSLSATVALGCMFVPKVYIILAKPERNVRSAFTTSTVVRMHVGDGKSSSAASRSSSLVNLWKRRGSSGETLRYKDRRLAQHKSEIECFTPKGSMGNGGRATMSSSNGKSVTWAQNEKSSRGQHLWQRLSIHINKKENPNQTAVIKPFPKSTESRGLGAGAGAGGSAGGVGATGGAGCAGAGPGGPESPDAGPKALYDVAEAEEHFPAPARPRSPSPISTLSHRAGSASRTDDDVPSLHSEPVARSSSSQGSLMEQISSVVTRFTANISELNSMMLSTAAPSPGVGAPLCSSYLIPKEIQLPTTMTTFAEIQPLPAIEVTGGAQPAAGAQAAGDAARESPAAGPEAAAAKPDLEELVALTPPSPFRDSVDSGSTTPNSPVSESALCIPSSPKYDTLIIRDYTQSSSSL

[2] = target: Metabotropic glutamate receptor 1 (Homo sapiens) (UniProt Q13255); experiment: Antagonist activity at human mGluR1 receptor expressed in CHOK1 cells assessed as inhibition of glutamate-mediated internal calcium mobilization; format: functional, cell-based; details: CHO-K1
Chain of Metabotropic glutamate receptor 1 (Homo sapiens) (Q13255 19-1194 limits assumed): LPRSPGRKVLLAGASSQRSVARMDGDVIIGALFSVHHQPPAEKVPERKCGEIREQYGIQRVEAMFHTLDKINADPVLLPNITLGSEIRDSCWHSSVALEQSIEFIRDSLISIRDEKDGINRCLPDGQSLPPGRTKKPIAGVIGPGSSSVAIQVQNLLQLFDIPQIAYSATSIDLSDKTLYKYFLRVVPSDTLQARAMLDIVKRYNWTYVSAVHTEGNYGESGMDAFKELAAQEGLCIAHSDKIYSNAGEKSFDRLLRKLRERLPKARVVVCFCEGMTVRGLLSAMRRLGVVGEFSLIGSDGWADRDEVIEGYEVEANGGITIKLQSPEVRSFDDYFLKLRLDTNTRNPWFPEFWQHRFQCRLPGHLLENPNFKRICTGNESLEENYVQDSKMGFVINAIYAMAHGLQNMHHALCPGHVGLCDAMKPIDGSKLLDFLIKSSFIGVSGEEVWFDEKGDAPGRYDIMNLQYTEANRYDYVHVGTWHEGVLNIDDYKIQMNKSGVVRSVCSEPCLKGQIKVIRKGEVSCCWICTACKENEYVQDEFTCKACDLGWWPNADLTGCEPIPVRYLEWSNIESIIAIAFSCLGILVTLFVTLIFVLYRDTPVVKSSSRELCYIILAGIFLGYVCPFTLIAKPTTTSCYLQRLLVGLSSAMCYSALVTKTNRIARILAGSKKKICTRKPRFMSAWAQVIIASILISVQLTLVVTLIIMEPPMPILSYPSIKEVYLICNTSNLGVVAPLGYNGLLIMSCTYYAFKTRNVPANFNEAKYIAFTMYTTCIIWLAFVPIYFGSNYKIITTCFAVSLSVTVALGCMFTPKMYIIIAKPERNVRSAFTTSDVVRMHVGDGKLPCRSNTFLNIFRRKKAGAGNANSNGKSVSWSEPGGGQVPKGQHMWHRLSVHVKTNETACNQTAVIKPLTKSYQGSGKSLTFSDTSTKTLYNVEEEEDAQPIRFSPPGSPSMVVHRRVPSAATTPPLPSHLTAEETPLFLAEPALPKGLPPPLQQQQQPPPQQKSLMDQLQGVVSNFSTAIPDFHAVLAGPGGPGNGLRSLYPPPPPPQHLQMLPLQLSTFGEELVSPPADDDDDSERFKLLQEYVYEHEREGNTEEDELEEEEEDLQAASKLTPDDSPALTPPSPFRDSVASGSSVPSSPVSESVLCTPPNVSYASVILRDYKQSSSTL

| Structure (SMILES) | IC50 ([1]; cho-k1) | IC50 ([1]; read-out: IC50) [nM] | Activity [2] |
| --- | --- | --- | --- |
| Cc1cnnc(C#Cc2cccc3ccccc23)n1 | – | 8900 | inactive |
| Cc1cnnc(C#Cc2cccc(Br)c2)n1 | – | 6 | inactive |
| Cc1ccc(C)c(C#Cc2nncc(C)n2)c1 | – | 1890 | inactive |
| Cc1cnnc(C#Cc2cccc(C(F)(F)F)c2)n1 | – | 85 | inactive |
| Cc1cnnc(C#Cc2ccc(F)c(C)c2)n1 | – | 132 | inactive |
| Cc1cnnc(C#Cc2ccc(-c3ccccc3)cc2)n1 | – | 510 | inactive |
| Cc1cnnc(C#Cc2ccccc2)n1 | – | 140 | inactive |
| Cc1cnnc(C#Cc2ccc(C(F)(F)F)cc2)n1 | Not Active | – | – |
| COc1ccc(C#Cc2nncc(C)n2)c(C)c1 | Not Active | – | – |
| Cc1nncc(C#Cc2ccccc2)n1 | Not Active | – | – |
| Cc1cnnc(C#Cc2ccc3ccccc3c2)n1 | Not Active | – | – |
| Cc1cccc(C#Cc2nncc(C)n2)c1 | – | 2.3 | inactive |

The remaining lines, values ahead:

| IC50 ([1]; cho-k1) | IC50 ([1]; read-out: IC50) [nM] | Activity [2] | Structure (SMILES) |
| --- | --- | --- | --- |
| Not Active | – | – | Cc1cnnc(C#Cc2ccc(F)cc2F)n1 |
| – | 96 | inactive | Cc1cnnc(C#Cc2cccc(F)c2)n1 |
| Not Active | – | – | Cc1cnnc(C#Cc2ccccc2C)n1 |
| Not Active | – | – | Cc1cnc(C#Cc2ccccc2)nn1 |
| Not Active | – | – | Cc1cnnc(C#Cc2cc(C(F)(F)F)cc(C(F)(F)F)c2)n1 |
| Not Active | – | – | COc1ccccc1C#Cc1nncc(C)n1 |
| Not Active | – | – | Cc1cnnc(C#Cc2ccc3c(c2)OCO3)n1 |
| – | 4.2 | inactive | Cc1cnnc(C#Cc2cccc(Cl)c2)n1 |
| – | 80 | inactive | Cc1cnnc(C#Cc2ccc(Oc3ccccc3)cc2)n1 |
| – | 312 | inactive | COc1cccc(C#Cc2nncc(C)n2)c1 |
| – | 52 | inactive | Cc1cnnc(C#Cc2cccc(C#N)c2)n1 |
